Like-named read-outs stand apart in the source and are kept apart here.
System: HBV
Test: HBV-DNA antiviral assay using HepG2.117 cells (intracellular HBV DNA by qPCR)
Type: cell-based, HBV genotype D
Settings: HBV DNA inhibition, 3 days incubation, read-out: EC50
Outline: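 Read-outs: cell-lysate HBV DNA copies by qPCR (interpolated from gBlock standard) and parallel cellular ATP luminescence for CC50, both normalised to 2% DMSO controls and fitted by non-linear regression. HepG2.117 Tet-off genotype D HBV cells, induced by doxycycline removal, exposed 3 days to 4-fold serial dilutions.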

[1] = Hepatitis B virus, HepG2.117, 72 h

Row | SMILES | EC50 [1] | EC50
1 | C[C@H]1Cn2c(c(C(=O)NCc3ccccc3-c3ccncn3)n(-c3ccc(OC[C@@](C)(O)C(F)(F)F)cc3)c2=O)CN1C(=O)c1ccc(Br)c(C(F)(F)F)c1 (stereo in doubt) [Compound 82b, rac-(6S)-7-[4-bromo-3-(trifluoromethyl)benzoyl]-6-methyl-3-oxo-N-[(2-pyrimidin-4-ylphenyl)methyl]-2-[4-[rac-(2R)-3,3,3-trifluoro-2-hydroxy-2-methyl-propoxy]phenyl]-6,8-dihydro-SH-imidazo[1,5-a]pyrazine-1-carboxamide] | < 50 nM | –
2 | C[C@@H]1Cn2c(c(C(=O)NCc3ccccc3-c3ccncn3)n(-c3ccc(OC[C@](C)(O)C(F)(F)F)cc3)c2=O)CN1C(=O)c1ccc(Br)c(C(F)(F)F)c1 (stereo in doubt) [Compound 83a, rac-(6R)-7-[4-bromo-3-(trifluoromethyl)benzoyl]-6-methyl-3-oxo-N-[(2-pyrimidin-4-ylphenyl)methyl]-2-[4-[rac-(2S)-3,3,3-trifluoro-2-hydroxy-2-methyl-propoxy]phenyl]-6,8-dihydro-SH-imidazo[1,5-a]pyrazine-1-carboxamide] | 50 to 500 nM | –
3 | C[C@H]1Cn2c(c(C(=O)NCc3ccccc3-c3ccncn3)n(-c3ccc(OC[C@](C)(O)C(F)(F)F)cc3)c2=O)CN1C(=O)c1ccc(Br)c(C(F)(F)F)c1 (stereo in doubt) [Compound 83b, rac-(6S)-7-[4-bromo-3-(trifluoromethyl)benzoyl]-6-methyl-3-oxo-N-[(2-pyrimidin-4-ylphenyl)methyl]-2-[4-[rac-(2S)-3,3,3-trifluoro-2-hydroxy-2-methyl-propoxy]phenyl]-6,8-dihydro-5H-imidazo[1,5-a]pyrazine-1-carboxamide] | 50 to 500 nM | –
4 | C[C@@H]1Cn2c(c(C(=O)NCc3ccccc3-c3ccccn3)n(-c3ccc(OC[C@@](C)(O)C(F)(F)F)cc3)c2=O)CN1C(=O)c1ccc(Br)c(C(F)(F)F)c1 (stereo in doubt) [Compound 89a, rac-(6R)-7-[4-bromo-3-(trifluoromethyl)benzoyl]-6-methyl-3-oxo-N-[[2-(2-pyridyl)phenyl]methyl]-2-[4-[rac-(2R)-3,3,3-trifluoro-2-hydroxy-2-methyl-propoxy]phenyl]-6,8-dihydro-5H-imidazo[1,5-a]pyrazine-1-carboxamide] | < 50 nM | –
5 | C[C@H]1Cn2c(c(C(=O)NCc3ccccc3-c3ccccn3)n(-c3ccc(OC[C@@](C)(O)C(F)(F)F)cc3)c2=O)CN1C(=O)c1ccc(Br)c(C(F)(F)F)c1 (stereo in doubt) [Compound 89b, rac-(6S)-7-[4-bromo-3-(trifluoromethyl)benzoyl]-6-methyl-3-oxo-N-[[2-(2-pyridyl)phenyl]methyl]-2-[4-[rac-(2R)-3,3,3-trifluoro-2-hydroxy-2-methyl-propoxy]phenyl]-6,8-dihydro-SH-imidazo[1,5-a]pyrazine-1-carboxamide] | < 50 nM | –
6 | C[C@@H]1Cn2c(c(C(=O)NCc3ccccc3-c3ccccn3)n(-c3ccc(OC[C@](C)(O)C(F)(F)F)cc3)c2=O)CN1C(=O)c1ccc(Br)c(C(F)(F)F)c1 (stereo in doubt) [Compound 90a, rac-(6R)-7-[4-bromo-3-(trifluoromethyl)benzoyl]-6-methyl-3-oxo-N-[[2-(2-pyridyl)phenyl]methyl]-2-[4-[rac-(2S)-3,3,3-trifluoro-2-hydroxy-2-methyl-propoxy]phenyl]-6,8-dihydro-5H-imidazo[1,5-a]pyrazine-1-carboxamide] | 50 to 500 nM | –
7 | C[C@H]1Cn2c(c(C(=O)NCc3ccccc3-c3ccccn3)n(-c3ccc(OC[C@](C)(O)C(F)(F)F)cc3)c2=O)CN1C(=O)c1ccc(Br)c(C(F)(F)F)c1 (stereo in doubt) [Compound 90b, rac-(6S)-7-[4-bromo-3-(trifluoromethyl)benzoyl]-6-methyl-3-oxo-N-[[2-(2-pyridyl)phenyl]methyl]-2-[4-[rac-(2S)-3,3,3-trifluoro-2-hydroxy-2-methyl-propoxy]phenyl]-6,8-dihydro-5H-imidazo[1,5-a]pyrazine-1-carboxamide] | 50 to 500 nM | –
8 | CC1Cn2c(c(C(=O)NCc3ccccc3-c3ncccn3)n(-c3ccc4c(cnn4C[C@@H](C)O)c3)c2=O)CN1C(=O)c1ccc(Br)c(C(F)(F)F)c1 (stereo in doubt) [Compound 91a, (6R*)-7-[4-bromo-3-(trifluoromethyl)benzoyl]-2-{1-[(2R)-2-hydroxypropyl]indazol-5-yl}-6-methyl-3-oxo-N-{[2-(pyrimidin-2-yl)phenyl]methyl}-5H,6H,8H-imidazo[1,5-a]pyrazine-1-carboxamide] | 50 to 500 nM | –
9 | CC1Cn2c(c(C(=O)NCc3ccccc3-c3ncccn3)n(-c3ccc4c(cnn4C[C@@H](C)O)c3)c2=O)CN1C(=O)c1ccc(Br)c(C(F)(F)F)c1 (stereo in doubt) [Compound 91b, (6S*)-7-[4-bromo-3-(trifluoromethyl)benzoyl]-2-{1-[(2R)-2-hydroxypropyl]indazol-5-yl}-6-methyl-3-oxo-N-{[2-(pyrimidin-2-yl)phenyl]methyl}-5H,6H,8H-imidazo[1,5-a]pyrazine-1-carboxamide] | – | 50 to 500 nM
10 | O=C(NCc1ccccc1-c1ncccn1)c1c2n(c(=O)n1-c1ccc(OC3CC3)cc1)C[C@@H](COCc1ccccc1)N(C(=O)c1ccc(Br)c(C(F)(F)F)c1)C2 (stereo in doubt) [Compound 130, 6-(benzyloxymethyl)-7-[4-bromo-3-(trifluoromethyl)benzoyl]-2-[4-(cyclopropoxy)phenyl]-3-oxo-N-[(2-pyrimidin-2-ylphenyl)methyl]-6,8-dihydro-5H-imidazo[1,5-a]pyrazine-1-carboxamide] | 500 to 5000 nM | –
11 | O=C(NCc1ccccc1-c1ncccn1)c1c2n(c(=O)n1-c1ccc(OC3CC3)cc1)C[C@@H](CO)N(C(=O)c1ccc(Br)c(C(F)(F)F)c1)C2 (stereo in doubt) [Compound 131, 7-[4-bromo-3-(trifluoromethyl)benzoyl]-2-[4-(cyclopropoxy)phenyl]-6-(hydroxymethyl)-3-oxo-N-[(2-pyrimidin-2-ylphenyl)methyl]-6,8-dihydro-5H-imidazo[1,5-a]pyrazine-1-carboxamide] | 500 to 5000 nM | –
12 | CC1Cn2c(c(C(=O)NCc3ccccc3-c3cccnn3)n(-c3ccc(OCC(C)(O)C(F)(F)F)cc3)c2=O)CN1C(=O)c1ccc(Br)c(C(F)(F)F)c1 (stereo not drawn) [Compound 85a, 7-(4-bromo-3-(trifluoromethyl)benzoyl)-6-methyl-3-oxo-N-(2-(pyridazin-3-yl)benzyl)-2-(4-(3,3,3-trifluoro-2-hydroxy-2-methylpropoxy)phenyl)-2,3,5,6,7,8-hexahydroimidazo[1,5-a]pyrazine-1-carboxamide] | 50 to 500 nM | –
13 | CC(C)(O)COc1ccc(-n2c(C(=O)NCc3ccccc3)c3n(c2=O)CCN(C(=O)c2ccc(Br)c(Cl)c2)C3)cc1 [Compound 114, N-benzyl-7-(4-bromo-3-chloro-benzoyl)-2-[4-(2-hydroxy-2-methyl-propoxy)phenyl]-3-oxo-6,8-dihydro-5H-imidazo[1,5-a]pyrazine-1-carboxamide] | 50 to 500 nM | –
14 | C[C@@H]1CN(c2ccc(-n3c(C(=O)NCc4ccccc4)c4n(c3=O)CCN(C(=O)c3ccc(Br)c(Cl)c3)C4)cc2)CCN1C [Compound 116, N-benzyl-7-(4-bromo-3-chloro-benzoyl)-3-oxo-2-[4-[(3R)-3,4-dimethylpiperazin-1-yl]phenyl]-6,8-dihydro-5H-imidazo[1,5-a]pyrazine-1-carboxamide] | 50 to 500 nM | –
15 | CC1(O)CN(c2ccc(-n3c(C(=O)NCc4ccccc4)c4n(c3=O)CCN(C(=O)c3ccc(Br)c(Cl)c3)C4)cc2)C1 [Compound 117, N-benzyl-7-(4-bromo-3-chloro-benzoyl)-2-[4-(3-hydroxy-3-methyl-azetidin-1-yl)phenyl]-3-oxo-6,8-dihydro-5H-imidazo[1,5-a]pyrazine-1-carboxamide] | 50 to 500 nM | –
16 | O=C(NCc1ccccc1)c1c2n(c(=O)n1-c1ccc(N3CC(O)(C(F)(F)F)C3)cc1)CCN(C(=O)c1ccc(Br)c(Cl)c1)C2 [Compound 118, N-benzyl-7-(4-bromo-3-chloro-benzoyl)-2-[4-[3-hydroxy-3-(trifluoromethyl)azetidin-1-yl]phenyl]-3-oxo-6,8-dihydro-5H-imidazo[1,5-a]pyrazine-1-carboxamide] | 50 to 500 nM | –
17 | O=C(NCc1ccccc1)c1c2n(c(=O)n1-c1ccc(N3CCOC(F)(F)C3)cc1)CCN(C(=O)c1ccc(Br)c(Cl)c1)C2 [Compound 119, N-benzyl-7-(4-bromo-3-chloro-benzoyl)-2-[4-(2,2-difluoromorpholin-4-yl)phenyl]-3-oxo-6,8-dihydro-5H-imidazo[1,5-a]pyrazine-1-carboxamide] | 50 to 500 nM | –
18 | O=C(NCc1ccccc1)c1c2n(c(=O)n1-c1ccc(N3CCOC4(CC4)C3)cc1)CCN(C(=O)c1ccc(Br)c(Cl)c1)C2 [Compound 120, N-benzyl-7-(4-bromo-3-chloro-benzoyl)-2-[4-(4-oxa-7-azaspiro[2.5]octan-7-yl)phenyl]-3-oxo-6,8-dihydro-5H-imidazo[1,5-a]pyrazine-1-carboxamide] | 50 to 500 nM | –
19 | O=C(NCc1ccccc1)c1c2n(c(=O)n1-c1ccc(N3CC4CCC(C3)O4)cc1)CCN(C(=O)c1ccc(Br)c(Cl)c1)C2 [Compound 121, N-benzyl-7-(4-bromo-3-chloro-benzoyl)-2-[4-(8-oxa-3-azabicyclo[3.2.1]octan-3-yl)phenyl]-3-oxo-6,8-dihydro-5H-imidazo[1,5-a]pyrazine-1-carboxamide] | 50 to 500 nM | –
20 | O=C(NCc1ccccc1)c1c2n(c(=O)n1-c1ccc(N3CCN(CC(F)(F)F)CC3)cc1)CCN(C(=O)c1ccc(Br)c(Cl)c1)C2 [Compound 122, N-benzyl-7-(4-bromo-3-chloro-benzoyl)-3-oxo-2-[4-[4-(2,2,2-trifluoroethyl)piperazin-1-yl]phenyl]-6,8-dihydro-5H-imidazo[1,5-a]pyrazine-1-carboxamide] | 50 to 500 nM | –
21 | Cn1cnc2cc(-n3c(C(=O)NCc4ccccc4)c4n(c3=O)CCN(C(=O)c3ccc(Br)c(Cl)c3)C4)ccc21 [Compound 123, N-benzyl-7-(4-bromo-3-chloro-benzoyl)-2-(1-methylbenzimidazol-5-yl)-3-oxo-6,8-dihydro-5H-imidazo[1,5-a]pyrazine-1-carboxamide] | 500 to 5000 nM | –
